Test results: patent US11406592B2, “Drug delivery methods, structures, and compositions for nasolacrimal system” (Mati Therapeutics Inc., priority 2006, dated 2022)
One block for each compound: values may come before it.

Legend:
[1] = Bimatoprost bulk sample elution, normalized to ng per device per day; type: physicochemical; details: for zero order elution rate: about 90 days
Procedure: Bulk samples of 1% Bimatoprost having a known diameter of 0.076 cm (0.76 mm) were prepared. The height of each sample was determined from the weight and known diameter of the sample.
The calculated heights ranged from 0.33 cm to 0.42 cm. The exposed surface area on each end of each bulk sample was approximately 0.045 cm^2, providing volumes of 0.019 cm^3 and 0.015 cm^3 for the 0.42 and 0.33 cm samples, respectively. The exposed an exposed surface area of samples calculated from the height and diameter without a drug sheath was approximately 0.1 cm^2. Three formulations were evaluated: 1) silicone 4011, 1% Bimatoprost, 0% surfactant; 2) silicone 4011, 1% Bimatoprost, approximately 11% surfactant; and 3) silicone 4011, 1% Bimatoprost, approximately 33% surfactant. The elution data measured for the bulk samples with formulation 1, 2 and 3 were normalized to ng per device per day (ng/device/day) assuming a surface area of the bulk device is 0.1 cm^2 and the surface area of the clinical device is 0.00078 cm^2 (0.3 mm diameter). […] The normalized elution profile is about 10 ng per day. […] Similar formulations can be used with drug core sheaths and a shaped exposed surface of the core exposed to the tear to increase the exposed surface area as described above and deliver the drug in therapeutic amounts over an extended period.
In some embodiments, the core can comprise a 0.76 mm diameter core with an exposed surface diameter of 0.76 mm, corresponding to an exposed surface area of 0.0045 cm^2. The core can be covered with a sheath to define the exposed surface of the core as described above The normalized elution profile for such a device, based on the bulk sample data above, is approximately 6 times (0.0045 cm^2/0.00078 cm^2) the elution profile for the device with a 0.3 mm diameter exposed surface area. Thus, a zero order elution profile with an elution rate of about 60 ng per day can be obtained over a period of about 90 days. If the exposed surface area is increased to about 0.0078 cm2, for example with many of the exposed surface shapes as described above, the zero order elution rat is about 100 ng per day over a period of about 90 days. The concentration can also be increased from 1%. Similar elution profiles can be obtained with Latanoprost.

IOP = details: cited from earlier work
[2] = Latanoprost drug core elution study (in vitro), 7.4 pH buffer, HPLC; type: physicochemical; details: for Duration: calculated time when ~10% of original drug remains
Description: Drug cores as described above have been fabricated with different cross sectional sizes of 0.006 inches, 0.012 inches, and 0.025 inches, and drug concentrations of 5%, 10% and 20% in a silicone matrix. Theses drug cores can be made with a Syringe Tube and Cartridge Assembly, Mixing Latanoprost with Silicone, and Injecting the mixture into a polyimide tube which is cut to desired lengths and sealed. The length of the drug cores were approximately 0.80 to 0.95 mm, which for a diameter of 0.012 inches (0.32 mm) corresponds to total Latanoprost content in the drug cores of approximately 3.5 μg, 7 μg and 14 μg for concentrations of 5%, 10% and 20%, respectively.
Syringe Tube and Cartridge Assembly. 1. Take polyimide tubing of three different diameters 0.006 inches, 0.0125 inches and 0.025 inches. 2. Cut polyimide tubing of different diameters to ˜15 cm length. 3. Insert Polyimide tubes into a Syringe Adapter. 4. Adhesive bond polyimide tube into luer adapter (Loctite, low viscosity UV cure). 5. Trim end of assembly. 6. Clean the cartridge assembly using distilled water and then with methanol and dry it in oven at 60° C.
Mix Latanoprost with Silicone. Prepare Latanoprost. Latanoprost is provided as a 1% solution in methylacetate. Place the appropriate amount of solution into a dish and using a nitrogen stream, evaporate the solution until only the Latanoprost remains. Place the dish with the Latanoprost oil under vacuum for 30 minutes. Combine Latanoprost with silicone. Prepare three different concentrations of Latanoprost (5%, 10% and 20%) in silicon Nusil 6385 and inject it into tubing of different diameters (0.006 in, 0.012 in and 0.025 inches) to generate 3×3 matrixes. The percent of Latanoprost to silicone is determined by the total weight of the drug matrix. Calculation: Weight of Latanoprost/(weight of Latanoprost+weight of silicone)×100=percent drug.
Inject tube. 1. Insert Cartridge and Polyimide tubes assembly into 1 ml syringe. 2. Add one drop of catalyst, (MED-6385 Curing Agent) in the syringe. 3. Force excess catalyst out of the polyimide tube with clean air. 4. Fill syringe with silicone drug matrix. 5. Inject tube with drug matrix until the tube is filled or the syringe plunger becomes too difficult to push. 6. Close off the distal end of the polyimide tube and maintain pressure until the silicone begins to solidify. 7. Allow to cure at room temperature for 12 hours. 8. Place under vacuum for 30 minutes. 9. Place tube in right size trim fixture (prepared in house to hold different size tubing) and cut drug inserts to length (0.80-0.95 mm).
Testing. Elution study (in vitro). 1. Place 10 plugs of same size and same concentration per centrifuge tube and add 1.5 ml of 7.4 pH buffer solution to it. 2. Change the solvent with fresh 7.4 pH buffer after appropriate time. 3. Take HPLC of the eluant at 210 nm with PDA detector 2996 using Sunfire C18, 3 mm×10 mm column (Waters Corporation, Milford, Mass.). Acetonitrile and water mixture is used for gradient elution. Calibration was done in house before and after each analysis, using in-house standards with precisely weighed concentration of Latanoprost. 4. Calculate the amount of drug release per day per device for different size tubings having different concentrations of Latanoprost. 5. Plot elution rate vs area and concentration for day 1 and day 14.

[3] = Latanoprost elution from drug cores of four formulations (silicone 4011, 6385 and/or NaCl); type: physicochemical; details: formulations A-D, non-sterile drug cores
Description: Drug cores were manufactured as described above with Latanoprost and silicone 4011, 6385 and/or NaCl. Four formulations were manufactured as follows: A) silicone 4011, approximately 20% Latanoprost, and approximately 20% NaCL; B) silicone 4011, approximately 20% Latanoprost, and approximately 10% NaCl; C) silicone 4011, approximately 10% Latanoprost, and approximately 10% NaCl; and D) silicone 6385, approximately 20% Latanoprost. […] The results shown are for non-sterile drug cores. Similar results have been obtained with sterile drug cores of Latanoprost.

zero order elution rate ([1]; extrapolated from bulk data to 0.76 mm exposed surface diameter (0.0045 cm^2)): about 60 ng per day | zero order elution rate ([1]; extrapolated from bulk data to exposed surface area about 0.0078 cm2): about 100 ng per day | normalized elution profile ([1]; silicone 4011 with 1% Bimatoprost, formulations 1-3 (0%, 11%, 33% surfactant), normalized to 0.3 mm exposed surface diameter (0.00078 cm^2)): about 10 ng per day
SMILES: CCNC(=O)CCC/C=C\C[C@@H]1[C@@H](/C=C/[C@@H](O)CCc2ccccc2)[C@H](O)C[C@@H]1O [Bimatoprost]
release kinetics ([1]; each of formulations 1-3, from about ten days to about 90 days): approximately zero order release kinetics

elution rate compared with the 14 μg core ([2]; 7 μg core (10%), 0.32 mm diameter, 0.95 mm long, from 10 to 20 days): comparable rates | elution rate ([2]; 14 μg core (20%), 0.32 mm diameter, 0.95 mm long, from about 10 to 40 days): approximately 100 ng per day | initial elution of Latanoprost from the plug ([2]; buffered saline elution system, initially): approximately 500 ng per day | elution of Latanoprost from the plug after drop-off ([2]; buffered saline elution system, within 7-14 days, depending on initial concentration): approximately 100 ng/day | quantity of Latanoprost released ([2]; day 1, 0.006 inch diameter core (exposed surface area 0.02 mm^2)): about 200 ng | quantity of Latanoprost released ([2]; day 1, 0.012 inch diameter core (exposed surface area 0.07 mm^2)): ~400 ng | quantity of Latanoprost released ([2]; day 1, 0.025 inch diameter core (exposed surface area 0.32 mm^2)): ~1200 ng | quantity of Latanoprost released ([2]; day 14, 0.006 inch diameter core (exposed surface area 0.02 mm^2)): about 25 ng | quantity of Latanoprost released ([2]; day 14, 0.012 inch (0.32 mm) diameter core (exposed surface area 0.07 mm^2)): ~100 ng | quantity of Latanoprost released ([2]; day 14, 0.025 inch diameter core (exposed surface area 0.32 mm^2)): ~300 ng | Duration ([2]; total Latanoprost content 3.5 μg): ~25 days | Duration ([2]; total Latanoprost content 7 μg): ~45 days | Duration ([2]; total Latanoprost content 14 μg): ~100 days | elution rate ([3]; by 3 weeks (21 days)): about 100 ng per device per day | initial elution rate ([3]; initial): approximately 300 ng per device per day
SMILES: CC(C)OC(=O)CCC/C=C\C[C@@H]1[C@@H](CC[C@@H](O)CCc2ccccc2)[C@H](O)C[C@@H]1O [Latanoprost]
time effective in lowering IOP (IOP; about 200 ng of drug remaining on the eye after a drop of Xalatan): at least 24 hours | IOP reduction relative to the 50 μg/mL QD dose (IOP; lowest doses of 12.5 μg/mL QD or 15 μg/mL BID): 60-75%
